The numbers were not newly measured in patent US8067434B2, “Compounds and methods for development of Ret modulators” (Plexxikon Inc., priority 2003, dated 2011), which cites them from elsewhere.

Molecules are shown by their SMILES.

One series concerns Ret. Conditions: DAergic neuron cultures.
Series [1] concerns TT cells, with RetC634 mutant. To be noted: TT cells in RPMI medium, varying concentrations.
For a further series, the system named is Ret kinase. To be noted: incubation with the inhibitor.
The subject of a further series is Ret transformed NIH3T3. To be noted: Ret transformed NIH3T3, treatment with inhibitor.

Regarding `C[C@]12O[C@H](C[C@]1(O)C(=O)O)n1c3ccccc3c3c4c(c5c6ccccc6n2c5c31)CNC4=O` [Compound K-252b, K-252b], the “normal functioning of Ret in GDNF-induced differentiation” value with Ret is listed as “inhibited”. For `Cc1ccc(NC(=O)c2ccc(CN3CCN(C)CC3)cc2)cc1Nc1nccc(-c2cccnc2)n1` [STI571], the cell growth entry in series [1] was “inhibiting cell growth”.

Consider `C=CCNC1=C2C[C@@H](C)C[C@H](OC)[C@H](O)[C@@H](C)/C=C(\C)[C@H](OC(N)=O)[C@@H](OC)/C=C\C=C(/C)C(=O)NC(=CC1=O)C2=O` [allyl-geldanamycin], for which, in series [1], the cell growth result is listed as “inhibiting cell growth”. Regarding `O=c1c(-c2ccc(O)cc2)coc2cc(O)cc(O)c12` [genistein], in series [1], the cell growth result was “inhibiting cell growth”. For the compound `CO[C@H]1[C@@H](OC)C[C@H](C)[C@@H](OC)C2=CC(=O)C=C(NC(=O)/C(C)=C/C=C\[C@H](OC)[C@@H](OC(N)=O)/C(C)=C/[C@@H]1C)C2=O` [herbimycin A], the “intracellular Ret kinase activity” value in the series on Ret kinase is reported as “decreased”. In addition, the cellular phenotype result with Ret transformed NIH3T3 was “reverted the cellular phenotype to a more untransformed flat morphology”.
